Literature values in patent US12485291B2, “Method for treatment of cholangiocarcinoma with cold atmospheric plasma and folfirinox” (Jerome Canady Research Institute for Advanced Biological …, priority 2019, dated 2025).

Tested on: metastatic pancreatic cancer
Conditions: patients with metastatic pancreatic cancer

Nc1ccn([C@@H]2O[C@H](CO)[C@@H](O)C2(F)F)c(=O)n1 [gemcitabine]
overall survival: 6.8 months
